The source of these data is PubChem BioAssay (NCI).

SMILES strings stand for the structures.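 Grown in 96-well plates, cells were treated for 48 hours with each compound at five concentrations. Insufficient inhibition: endpoint recorded as highest concentration tested. TGI is the concentration that stops growth completely.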 Bounds are passed on as bounds.

Among the test systems are SF-539 CNS; RXF 393 renal; TK-10 renal; DMS 114 small cell lung; LXFL 529 NSCLC; M19-MEL melanoma; XF 498 CNS; DMS 273 small cell lung; DLD-1 colon; KM20L2 colon; HOP-18 NSCLC; SNB-78 CNS.
Experiment in all cases: inhibition of tumour cell growth, NCI panel, 48 h

On to `COCCOCCOCCOc1ccc(C(C#N)N(CCc2ccccc2)C(=O)c2cc(C(=O)N(CCc3ccccc3)C(C#N)c3ccc(OCCOCCOCCOC)cc3)cc(C(=O)N(CCc3ccccc3)C(C#N)c3ccc(OCCOCCOCCOC)cc3)c2)cc1` (centres undefined), for which the TGI with SF-539 CNS, in the test on RXF 393 renal and in the test on TK-10 renal was greater than 100 µM each time.
For the molecule `O=C1C(Cl)C(c2cc3cc(Br)ccc3nc2Cl)N1c1c(Cl)cccc1Cl` (centres undefined), the TGI in the test with SF-539 CNS was 10.7 µM; in the test with RXF 393 renal, greater than 25 µM; in the test with TK-10 renal it was greater than 25 µM.
On to `O=C(c1ccccc1)c1c(CC(O)c2ccccc2)n(C(=O)c2ccccc2)c2ccccc12` (centres undefined), for which the TGI in the test with DMS 114 small cell lung, in the test on LXFL 529 NSCLC, with M19-MEL melanoma, in the test on XF 498 CNS, in the test on SF-539 CNS and in the test on DMS 273 small cell lung was greater than 100 µM in each case. Also, the TGI in the test on DLD-1 colon, in the test on KM20L2 colon and in the test on TK-10 renal was greater than 100 µM in each case.
Consider `COc1ccc2c(CCNS(=O)(=O)c3ccccc3)c(C(C)=O)[nH]c2c1`, for which the TGI in the test with SF-539 CNS, in the test on RXF 393 renal and in the test with TK-10 renal was greater than 100 µM each time.
On to `CC1OC(O[C@H]2CC[C@]3(C=O)[C@H]4CC[C@]5(C)[C@H](C6=CC(=O)OC6)CC[C@]5(O)[C@@H]4C=C[C@]3(O)C2)CC(O)C1O` (some centres undefined), for which the TGI in the test with SF-539 CNS worked out at 0.488 µM; in the test on RXF 393 renal, 0.193 µM; in the test on TK-10 renal, 1.64 µM.
The matching figures for `Cc1cc(C)n(CN(Cn2nc(C)cc2C)c2ccccc2)n1`: 38.3 µM, 38.9 µM and greater than 100 µM.
For `BrCC(Br)(c1ccccc1)c1ccccc1-c1cc(-c2ccccc2)cc(-c2ccccc2)n1` (centres undefined) the same measures were 19 µM, 5.92 µM and 21.5 µM.
`CC(=O)ON(C(C)=O)C1C(COC(c2ccccc2)(c2ccccc2)c2ccccc2)OC2OC3(CCCC3)OC21` (centres undefined): the TGI with DMS 114 small cell lung was greater than 100 µM; in the test on M19-MEL melanoma, greater than 100 µM; with XF 498 CNS it was greater than 100 µM; in the test with SF-539 CNS it was greater than 100 µM; in the test with RXF 393 renal, 60.4 µM; in the test with DMS 273 small cell lung, greater than 100 µM. The TGI in the test on DLD-1 colon, in the test with KM20L2 colon, with TK-10 renal and in the test with HOP-18 NSCLC was greater than 100 µM throughout.
As for `c1ccc(C2=Nc3cccc4cccc(c34)N2)cc1`, the TGI was greater than 100 µM in the test with SF-539 CNS, 45.6 µM with RXF 393 renal and greater than 72 µM in the test with TK-10 renal.
With `N#Cc1c(N)c(C#N)c2c(c1-c1ccc(Cl)cc1)COc1ccccc1-2`, the results for the TGI in the test with SF-539 CNS, in the test on RXF 393 renal and in the test on TK-10 renal were 49.1 µM, 30.4 µM and 36.1 µM, respectively.
The matching figures for `O=C1NC(S(=O)(=O)O)=NNC12c1ccccc1-c1ccccc12`: greater than 10 µM, greater than 10 µM and greater than 10 µM.
The matching figures for `COc1ccc(CNC(=O)[C@H](Cc2ccc(O)cn2)NC(C)=O)cc1`: greater than 100 µM, greater than 100 µM and greater than 100 µM.
In the case of `NC(=S)NS(=O)(=O)c1ccc(F)cc1F`, the TGI in the test with SF-539 CNS, with RXF 393 renal and in the test with TK-10 renal was greater than 100 µM in each case.
`CC1=NN(C(=O)c2ccc(Cl)cc2)C(=O)/C1=C/c1ccco1`: the TGI in the test with DMS 114 small cell lung, with LXFL 529 NSCLC, in the test with M19-MEL melanoma, with XF 498 CNS, with SF-539 CNS and in the test on RXF 393 renal was greater than 100 µM in each case. In addition, the TGI in the test on SNB-78 CNS, in the test with DLD-1 colon, with KM20L2 colon and in the test on TK-10 renal was greater than 100 µM each time.
In the case of `N#CCCN(CCC#N)c1ccc(C(N=Nc2ccc(Cl)cc2)=Nc2ccc(F)cc2)cc1`, the TGI in the test on SF-539 CNS, in the test on RXF 393 renal and in the test with TK-10 renal was greater than 100 µM throughout.
As for `NC(N)=NS(=O)(=O)c1ccc(NC(=O)c2ccc3[nH]c4ccccc4c(=O)c3c2)cc1`, the TGI with SF-539 CNS, with RXF 393 renal and in the test on TK-10 renal was greater than 100 µM in each case.
For the molecule `CN1C(=O)C23CCCCC2CC1(c1ccccc1)S3` (centres undefined), the TGI with SF-539 CNS, in the test on RXF 393 renal and with TK-10 renal was greater than 100 µM throughout.
With `O=C(O)CC1CC=C[C@H]2c3cc4c(cc3C(=O)NC12)OCO4` (some centres undefined), the TGI with DMS 114 small cell lung, with LXFL 529 NSCLC, in the test on M19-MEL melanoma, in the test on SF-539 CNS, with RXF 393 renal and in the test with SNB-78 CNS was greater than 75 µM in each case. The TGI in the test on DMS 273 small cell lung, in the test on DLD-1 colon, in the test on KM20L2 colon and in the test with TK-10 renal was greater than 75 µM in each case.
As to `O=C1C2ON3c4ccccc4C(=O)C3(c3ccccc3)C2C(=O)N1c1ccccc1` (centres undefined), the TGI with LXFL 529 NSCLC, in the test with M19-MEL melanoma, with XF 498 CNS, in the test on SF-539 CNS, with RXF 393 renal and in the test on SNB-78 CNS was greater than 100 µM each time. In addition, the TGI with DMS 273 small cell lung, in the test with DLD-1 colon, in the test on KM20L2 colon and with HOP-18 NSCLC was greater than 100 µM each time.
Take `Nc1c(N2CCCCC2)c(=O)nc2[nH]/c(=C\c3ccccc3)c(=O)n12`: the TGI in the test on SF-539 CNS, in the test on RXF 393 renal and in the test with TK-10 renal was greater than 100 µM throughout.
